Columns and labels:
[1] = tested on: CD34-positive mononuclear cells; assay: CD34-positive mononuclear cells in peripheral blood of lower limb DVT patients, flow cytometry (Example 2); format: in vivo, human; conditions: before administration 0.38 ± 0.42, 14 days
Description: (§1) The subjects consisted of 14 male and 6 female lower limb DVT patients with the unilateral limb suffer from the illness, aged from 59 to 76 years old (average age: 67.2 years old). The purpose of the clinical test was explained to all subjects and their consent was obtained before conducting the clinical test.
The first solution was a mixed solution made of sodium chlorite with the concentration of 7.47% and sodium chloride with the concentration of 1.59% with deionized water; the second solution was made of citric acid with the concentration of 16.7% with deionized water. Same volume of solutions were taken out from different vessels with different volumes and mixed up. Allow the solution to mix for 3-5 minutes and dilute it 5 times with normal saline, then filter it with 0.22 μm filter membrane of double-deck. The solution was immediately put into injector. The solution was prepared once being used. […]
(§2) Five ml of peripheral blood was collected from the median cubital vein of the forearm of each patient using low molecular weight heparin anticoagulant before administration (before initial administration) and on day 7 and 14 after administration, and the collected blood was immediately stored at 4° C. and measured within 6 hours after collection. […]

[2] = tested on: CD34-positive/CD31-positive mononuclear cells; assay: CD34-positive/CD31-positive mononuclear cells in peripheral blood of lower limb DVT patients, flow cytometry; format: in vivo, human; conditions: before administration 0.28 ± 0.30, diluted solution 10 ml/body/day femoral artery puncture, 14 days
Description: as §1
The first solution was a mixed solution made of sodium chlorite with the concentration of 7.47% and sodium chloride with the concentration of 1.59% with deionized water; the second solution was made of citric acid with the concentration of 16.7% with deionized water. Same volume of solutions were taken out from different vessels with different volumes and mixed up. […]
as §2
CD34-positive mononuclear cells/CD31-positive mononuclear cells were isolated by double immunofluorescent using flow cytometry. […] Next, CD34/CD31-positive mononuclear cells were isolated and counted by flow cytometry. The ratio (%) of CD34/CD 31-positive mononuclear cells among the mononuclear cells was calculated according to the following formula. […]

[3] = tested on: nestin-positive cells (neural stem cells); assay: Nestin-positive cells in the SVZ region, immunohistochemical stain; format: in vivo, Sprague-Dawley rats; conditions: for number of nestin-positive cells in the SVZ region (mean±SD): diluted solution via carotid artery once a day, ten days
Description: Male Sprague-Dawley rats with the age of 12 weeks and weight of 250^˜280 g were used in the experiment after acclimating for a week.
A middle cerebral artery occlusion model was first established in compliance with the method of Longa E Z et al. (Longa E Z, et al. Reversible middle cerebral artery occlusion without craniectomy in rats. Stroke 20:84-91, 1989). More specifically, 0.36 g/kg of 10% chloral hydrate was administered intraperitoneally to rats which had been fasted for 12 hours (although given free access to water) to anesthetize the rats. Next, a midline incision was made in the neck to expose the right common carotid artery. Then, the internal carotid artery and external carotid artery were separated, the posterior carotid artery, which is a branch of the external carotid artery, and the thyroidea arteria were coagulated and severed, the external carotid artery was ligated at the branch of the lingual artery and maxillary artery, a small puncture was formed in the external carotid artery, 4-0 Nylon suture was passed through the common carotid artery from the puncture, and gradually inserted into the internal carotid artery until there was resistance. The length of the Nylon suture was about 18^˜20 mm from the branch of the common carotid artery. As a result of occluding the middle cerebral artery with Nylon suture, an ischemic state was applied for 2 hours to create a middle cerebral artery occlusion model.
A cerebral ischemia/reperfusion injury model was established by removing the Nylon suture from the middle cerebral artery of the occlusion model and following reperfusion of blood.
The first solution was a mixed solution made of sodium chlorite with the concentration of 7.47% and sodium chloride with the concentration of 1.59% with deionized water; the second solution was made of citric acid with the concentration of 16.7% with deionized water. Same volume of solutions were taken out from different vessels with different volumes and mixed up. Allow the solution to mix for 3-5 minutes and dilute it five times with normal saline, and then filter it with 0.22 μm filter membrane of double-deck. The solution was immediately put into injector. The solution was prepared once being used.
Treatment group (120 rats): A cerebral ischemia/reperfusion injury model was established for the rats already. To administer chlorine dioxide solution everytime that prepared from procedure (3) through carotid artery after the second day the model has established, once a day for total ten days.
Ten rats of each group were autopsied on day 7, 14 and 21 after the model established, respectively (total animals are 30 rats from each group). After preparation of tissue specimens, the neural stem cells were counted under a microscope.
More specifically, rat frozen brain sections were prepared on day 7, 14 and 21 after the model established, and the presence of nestin-positive cells in the subventricular zone (SVZ) was measured by immunohistochemical stain using the marker of nestin expressed on the neural stem cells. The presence of nestin-positive cells was analyzed using mouse anti-rat nestin monoclonal antibody.
BRt(%)=(Bt−St)/(Mt−St)×100

[4] = tested on: hip arthritis (osteoarthritis); assay: Hip arthritis patients: VAS pain intensity, WOMAC, tolerance (Example 5); format: in vivo, human; conditions: 11 hip arthritis patients; for WOMAC mean (±SD): beginning 55.03 (±26.63); for Doctor VAS pain intensity, mean (±SD), 0-100: beginning 55.23 (±9.66); for Patients VAS pain intensity, mean (±SD), 0-100: beginning 58.32 (±8.25)
Description: To smear the solution over the skin of hip arthritis with swab immediately, once a day for consecutive 20 days. Then stop the administration for three months, and then began continuous treatment for 20 days. Clean and disinfect the regions before treatment, conduct local anesthetic 30 minutes before the operation.
The subjects who joined in the treatment group as volunteers consisted of 11 patients with hip arthritis (5 male, aged from 40 to 70 years old and 6 female, aged from 40 to 65 years old.). Case histories were recorded at the third and the sixth month by collecting personal and data of human body (height, body weight, BMI, blood pressure and heart rate.) Then evaluate the following parameters:
Pain intensity: VAS was used, ranging from 0 (normal) to 100 (maximum intensity), it was conducted by the doctor and patient:
Seriousness of the illness: Womac, namely, self-assessment of hip arthritis that consists of 24 items was used to detect the development and effect of the treatment.

Helicobacter pylori = assay: hp-positive gastric ulcer patients: HP negative conversing, rapid urease test; format: in vivo, human; conditions: 30 patients per group
Description: The subjects consisted of 90 gastric ulcer patients (50 male and 40 female) of hp-positive aged from 33 to 75 years old (average age: 41 years old). The subjects were randomly assigned to treatment group and control group with 30 patients in treatment group and 30 in control group 1 and 30 in control group 2 respectively.
Allow the solution to mix for 3-5 minutes. The capsule that containing activating agent of stem cells was made by injecting the mixed solution into the soft capsule of number 0.
The capsule that containing activating agent of stem cells was administered to the patients in treatment group three times a day and a pill each time; 30 minutes before meals, patients in control group 1 took orally 15 mg colloidal bismuth and 100 mg pectin tinidazole for three times a day. And 20 mg Omeprazole two times a day; patients in control group 2 took orally […] amoxicillin and 500 mg clindamycin three times a day and 20 mg esomeprazole twice a day before meals. Both groups were administered for a consecutive week. To observe the improvement of the clinical symptoms of the three cases two weeks after administration, such as stomachache, nausea and sour regurgitation. […]
Criteria for measuring the effects: the changes of conditions before and after treatment and the time the symptoms disappear were recorded precisely. […]

[5] = tested on: APTT, PT and TT (blood coagulation and fibrinolysis systems); assay: Side effects in lower limb DVT patients: APTT, PT, TT and pain
Description: Chlorine dioxide solution was administered to the patients through the contralateral femoral artery puncture (sick side) for 14 consecutive days, a dose of 10 ml/body/day. Before injection, use 2 ml-5 ml lidocaine of 2% to perform infiltration anesthesia at puncture point.

## [O][Cl+][O-] [chlorine dioxide solution, chlorine dioxide]
[1]; Day 7 after administration, n=20, NaClO2 7.47% + citric acid 16.7% 1:1 diluted 5 times, 10 ml/body/day femoral artery puncture
  CD34-Positive Mononuclear Cells (ratio among mononuclear cells, mean±SD): 0.91 ± 0.51 %
[1]; Day 14 after administration, n=15, diluted solution 10 ml/body/day femoral artery puncture
  CD34-Positive Mononuclear Cells (ratio among mononuclear cells, mean±SD): 1.4 ± 0.68 %
[2]; Day 7 after administration, n=20
  CD34-Positive/CD31-Positive Mononuclear Cells (ratio among mononuclear cells, mean±SD): 0.85 ± 0.51 %
[2]; Day 14 after administration, n=15
  CD34-Positive/CD31-Positive Mononuclear Cells (ratio among mononuclear cells, mean±SD): 1.1 ± 0.65 %
[3]; Day 7
  BRt: nestin-positive cells in treatment group relative to model group = 100%, (Bt-St)/(Mt-St)x100: 157.4%
[3]; Day 7 after model established, model group 210.5 ± 22.3, sham 45.6 ± 5.69
  number of nestin-positive cells in the SVZ region (mean±SD): 305.2 ± 30.6 No. cells/mm2
[3]; Day 14
  BRt: nestin-positive cells in treatment group relative to model group = 100%, (Bt-St)/(Mt-St)x100: 150.2%
[3]; Day 14, model group 74.5 ± 13.4, sham 13.2 ± 1.64
  number of nestin-positive cells in the SVZ region (mean±SD): 105.3 ± 15.4 No. cells/mm2
[3]; Day 21
  BRt: nestin-positive cells in treatment group relative to model group = 100%, (Bt-St)/(Mt-St)x100: 138.5%
[3]; Day 21, model group 46.2 ± 6.31, sham 1.99 ± 1.09
  number of nestin-positive cells in the SVZ region (mean±SD): 63.2 ± 7.55 No. cells/mm2
[4]; topical with DMSO
  time until pain and itch during administration disappeared completely: about an hour
  tolerance: without local or systemic anaphylactic reaction
[4]; sixth month, topical with DMSO
  WOMAC mean (±SD): 6.54 (±5.86)
  Doctor VAS pain intensity, mean (±SD), 0-100: 7.11 (±6.93)
  Patients VAS pain intensity, mean (±SD), 0-100: 6.32 (±6.53)
[4]; third month, topical with DMSO
  WOMAC mean (±SD): 20.11 (±22.53)
  Doctor VAS pain intensity, mean (±SD), 0-100: 20.03 (±7.32)
[4]; third month, NaClO2 8%/NaCl 2% + citric acid 15% 1:1, DMSO 1:1, smeared once a day 20 days, three months off, 20 days
  Patients VAS pain intensity, mean (±SD), 0-100: 18.24 (±7.25)
Helicobacter pylori; rapid urease test after 30 days
  HP negative conversing (%): 96.6%
Helicobacter pylori; rapid urease test of gastric mucosa after 30 days
  HP negative conversing (No.): 29
[5]; almost all the patients, day one after administration
  duration of stabbing pain after injection without anesthetic: 30 min
[5]; before, day 7 and day 14 after administration, lower limb DVT patients, 10 ml/body/day femoral artery puncture
  APTT, PT and TT, before vs after administration: no significant differences
[5]; lower limb DVT patients, 10 ml/body/day femoral artery puncture, 14 days
  side effects by administration: no occurrence of side effects

Source: patent publication US20150335678A1, “METHOD OF ACTIVATING STEM CELLS IN AN ANIMAL AND THE USE OF CHLORINE DIOXIDE FOR PREPARING MEDICINES FOR ACTIVATING STEM CELLS IN AN ANIMAL” (priority 2012, published 2015)
